Results taken from publication PMC12608329, “Inhibition of α-Glucosidase Activity and Islet Amyloid PolyPeptide Fibril Formation by Rubus ulmifolius Fruit Extract: A Potential Therapeutic Approach for Type 2 Diabetes Mellitus” (Plants, 2025).

Key:
[1] = ABTS radical scavenging activity; conditions: mean ± SD, three independent assays
Description: [50]. A volume of 10 μL of the extract was mixed with 1 mL of ABTS+ solution previously diluted to reach an absorbance of approximately 0.70 ± 0.05 (mean ± SD). After 1 min of incubation, the absorbance was recorded at 734 nm. Trolox (6-hydroxy-2,5,7,8-tetramethylchroman-2-carboxylic acid) was employed as the reference antioxidant. Results were expressed as the effective concentration required to achieve 50% reduction of the initial absorbance (EC50).

IAPP = system: IAPP; design: method as in PMID 40305223; conditions: cited from earlier work
[2] = system: human islets exposed to amylin; design: method as in PMID 34614009; conditions: cited from earlier work

Cc1c(C)c2c(c(C)c1O)CCC(C)(C(=O)O)O2 (centres unmarked) [Trolox, 6-hydroxy-2,5,7,8-tetramethylchroman-2-carboxylic acid]
ABTS EC50 [1]: 3.4 ± 0.3 µg/mL

COc1cc(/C=C/C(=O)CC(=O)/C=C/c2ccc(O)c(OC)c2)ccc1O [curcumin]
IAPP aggregation (IAPP): reduce IAPP aggregation

OC[C@H]1O[C@@H](Oc2cc3c(O)cc(O)cc3[o+]c2-c2ccc(O)c(O)c2)[C@H](O)[C@@H](O)[C@@H]1O [cyanidin 3-O-glucoside, cyanidin-3-O-glucoside]
amyloid formation in human islets exposed to amylin [2]: inhibit amyloid formation
cell viability of human islets exposed to amylin [2]: increase cell viability

epigallocatechin 3-gallate
IAPP aggregation (IAPP): reduce IAPP aggregation
